Results as given in patent EP2604265A1, “P2x7 antagonists as frontline or adjunctive treatment against status epilepticus” (Royal College of Surgeons in Ireland (RCSI), priority 2011, dated 2013).

Legend:
Adult male C57BL/6 mice = assay: Refractory SE model in mice, drugs given 60 min post-KA, EEG during the next hour; type: in vivo
Method: Adult male C57BL/6 mice (20-25 g) were obtained from Harlan UK (Blackthorn, UK). Mice were first anesthetized using isoflurane (3-5%) and maintained normothermic by means of a feedback-controlled heat blanket (Harvard Apparatus Ltd, Kent, UK). Mice were next placed in a stereotaxic frame and three partial craniectomies performed to affix cortical skull-mounted EEG electrodes (Bilaney Consultants Ltd, Sevenoaks, UK). EEG was recorded using a Grass Comet XL digital EEG (Medivent Ltd, Lucan, Ireland). A guide cannula was affixed (coordinates from Bregma: AP = 0.94; L = 2.85 mm) and the assembly fixed in place with dental cement. Anesthesia was then discontinued and freely moving mice were placed inside a clear perspex recording chamber. EEG recordings were commenced and after establishing baseline EEG for a few minutes, an injection cannula was lowered through the guide cannula for injection of kainic acid (KA) (Ocean Produce International, Nova Scotia, Canada) into the basolateral amygdala nucleus (0.3 µg in 0.2 µl phosphate-buffered saline). Non-seizure control mice underwent the same surgical procedure but received 0.2 µl intra-amygdala vehicle. Mice were killed at different time-points (1, 4, 8 or 24 h) later and perfused with saline to remove intravascular blood components. Brains were either flash-frozen whole in 2-methylbutane at […] or perfused with 4% PFA for histopathology, or dissected on ice to obtain whole hippocampus or microdissected to obtain the different hippocampal subfields (CA1, DG and CA3).
(§1) Digitized EEG recordings were analyzed off-line using manual assessment and automated software. The occurrence of high amplitude high frequency spiking during seizures is synonymous with injury-causing electrographic seizures during SE (also termed type IV electrographic seizures) (Lowenstein et al., 1991; Henshall et al., 2000). The duration of high-frequency (>5 Hz) high-amplitude (>2× baseline) polyspike discharges of ≥5 s duration (HAHFDs) was counted by a reviewer blind to treatment. Further EEG analysis was performed by uploading EEG into Labchart7 software (ADInstruments) to calculate the power spectral density (total power, a measure of the input signal's power (amplitude) over frequency) EEG spectrogram (spectral power against frequency and time).
A-438079 (3-[[5-(2,3-Dichlorophenyl)-1H-tetrazol-1-yl]methyl]pyridine hydrochloride) (50 µM) was from Tocris Biosciences (Bristol, U.K.) and the P2X7R specific antibody was from Alomone Labs (APR-008, Alomone Labs, Ltd, Jerusalem, Israel) and injected at 0.7 mg/ml. Lorazepam (Ativan®, Wyeth, Taplow, U.K.) (6 mg/kg) was administered intraperitoneally (i.p.) at 40 or 60 min after KA.
To model refractory SE, seizures were allowed to continue beyond the normal time when lorazepam is given (40 min) and instead the effects of drugs were recorded 60 min post-KA on the EEG during the next hour.

[1] = test system: 10 day old Sprague Dawley rat pups; assay: Neonatal SE model, intra-amygdala KA in P10 rat pups, EEG; type: in vivo; conditions: 150 µmol/kg intraperitoneally, 40 min post-KA
Method: 10 day old Sprague Dawley rat pups were obtained from Harlan UK Limited (Blackthorn, UK). Rat pups were equipped with skull surface EEG and given intra-amygdala microinjection of kainic acid (2 µg) via an implanted guide cannula. P10 rat pups develop SE shortly after KA injection. Seizures in the model are propagated to the hippocampus and surface EEG recordings have previously shown a transition to low amplitude high frequency EEG, developing into high amplitude high frequency epileptiform EEG seizures. The pups display behaviour including initial masticatory movements and salivation, developing to periods of facial and forelimb myoclonus and progressing to the most commonly observed behaviour of wild running, loss of posture and swimming motions. The high amplitude high frequency spiking is sustained and corresponds to wild running and swimming behaviours during recordings 1-2 h after KA. By 4 hours, continuous seizures have abated but the EEG continues to display intermittent lower-amplitude high frequency spiking and high amplitude low frequency spikes even after 24 h. The pathological consequences of neonatal seizures in the model include hippocampal cell death and the animals later display unilateral hippocampal sclerosis.
as §1, with “time). […]” for “time).”

**Q.** For `Cl.Clc1cccc(-c2nnnn2Cc2cccnc2)c1Cl` [A-438079, 3-[[5-(2,3-Dichlorophenyl)-1H-tetrazol-1-yl]methyl]pyridine hydrochloride], which “total seizure time (duration of HAHFDs)” value (Adult male C57BL/6 mice; given 60 min after KA, 60 min recording, vs vehicle) is on record?
**A.** not significantly different

**Q.** What about the seizure activity (Adult male C57BL/6 mice; given 60 min after KA, particularly within the first 15-30 min following injection) of the same compound?
**A.** some suppression

**Q.** What about the “mice continued in SE” value (Adult male C57BL/6 mice; given alone 60 min after KA, number of mice / group) of the same compound?
**A.** 3/5

**Q.** And the seizures ([1]; P10 rat pups)?
**A.** strongly reduced

**Q.** What about the amplitude ([1]; vs vehicle (PBS)) of the same compound?
**A.** less amplitude

**Q.** What about the total power ([1]; vs vehicle (PBS)) of the same compound?
**A.** less total power
